This note sets out measurements from patent publication US20150174144A1, “TETRACYCLINE COMPOUNDS FOR TREATING NEURODEGENERATIVE DISORDERS” (PARATEK PHARMACEUTICALS, INC., priority 2012, published 2015).

The subject of test [1] is animal models of MS and neuroprotection. In words: Accepted animal models of MS and neuroprotection (Table 2). Also noted: concentration or dose not given beside the values. The following applies: in vivo.
Test [2] has as its system cuprizone-induced demyelination. Kind of test: Mouse model of cuprizone-induced demyelination. It counts as in vivo, C57BL/6 female mice. The procedure:
Compound 1 was tested in the mouse model of cuprizone-induced demyelination to determine the protective effects of Compound 1. The general protocol for cuprizone model demyelination is as follows:
C57BL/6 female mice at 7-8 weeks old were fed a cuprizone diet (7012, 0.2% cuprizone mixed in standard pellet rodent chow purchased from Harlan Teklad, Indianapolis, Ind., USA) for 5 weeks. The cuprizone food was changed every two days and given ad libitum along with water. An additional group of mice was fed normal chow for 5 weeks to serve as a no cuprizone control.
Animals were dosed intraperitoneally (i.p.) once daily based on body weight with Compound 1 (25 mg/kg, 10 mL/kg in saline), minocycline positive control (25 mg/kg, 10 mL/kg in saline) or saline sham starting on the day of cuprizone diet initiation (day 0) and continuing until day of harvest.
At 3, 4, and 5 weeks of cuprizone feeding, ten mice from each group were euthanized by CO2 asphyxiation and decapitation and the brains were harvested and fixed in 10% buffered neutral formalin.
Postfixed brains were paraffin embedded and 8-12 μm serial sections of the brain between the septostriatal and rostral diencephalon were prepared for luxol fast blue periodic acid-Schiff base (LFB-PAS) staining (demyelination). Both medial and lateral demyelination of the corpus callosum was determined.
Demyelination scores for the medial corpus callosum ranged from 0 to 4 (0=fully myelinated, 1=<⅓ demyelination in the center of the medial corpus callosum, 2=<⅔ demyelination in the center of the corpus callosum, 3=no myelin in the center of corpus callosum and 4=demyelination extending to the arch of the medial corpus callosum). Demyelination in the lateral corpus callosum was scored on weeks 4 and 5 and ranged from 0 to 3 (0=normal myelination and 3=complete demyelination). Demyelination was scored 2-3 times for at least 2 brain sections.
Axon loss in the medial corpus callosum was determined on additional serial sections of brain using Bielschowsky silver staining. Axon loss in the medial corpus callosum was scored from 0-4 (0=normal number of axons to 4=complete axon loss) at 3, 4 and 5 weeks. Slides were scored by two technicians who were blinded to the treatment groups.

Test [3] deals with T1, recombinant human matrix metalloproteinase-9 (MMP-9) (Homo sapiens, UniProt P14780).
T1 construct: an aliquot of active recombinant human matrix metalloproteinase-9 (MMP-9)(CalBioChem) was added; purchased CalBioChem
T1 sequence (P14780 107-707 limits assumed): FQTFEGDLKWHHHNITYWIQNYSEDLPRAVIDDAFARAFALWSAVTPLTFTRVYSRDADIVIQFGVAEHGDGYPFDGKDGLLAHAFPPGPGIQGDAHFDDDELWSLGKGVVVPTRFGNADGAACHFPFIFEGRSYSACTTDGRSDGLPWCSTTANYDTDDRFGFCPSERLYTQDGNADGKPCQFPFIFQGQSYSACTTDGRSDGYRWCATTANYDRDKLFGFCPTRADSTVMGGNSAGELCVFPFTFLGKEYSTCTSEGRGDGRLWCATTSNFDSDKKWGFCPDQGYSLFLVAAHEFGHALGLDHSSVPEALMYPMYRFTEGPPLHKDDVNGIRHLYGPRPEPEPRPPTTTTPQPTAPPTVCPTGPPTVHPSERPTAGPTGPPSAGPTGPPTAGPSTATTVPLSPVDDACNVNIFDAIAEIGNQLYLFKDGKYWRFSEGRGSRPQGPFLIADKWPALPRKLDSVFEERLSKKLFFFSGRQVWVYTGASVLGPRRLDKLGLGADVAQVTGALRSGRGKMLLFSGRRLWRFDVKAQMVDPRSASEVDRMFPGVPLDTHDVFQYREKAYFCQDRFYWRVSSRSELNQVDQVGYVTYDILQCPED
In words: MMP-9 enzyme activity assay (cell-free). Type of test: biochemical. The procedure: (§1) Compound 1 was tested to determine specific anti-inflammatory characteristics. In vitro assays to assess the inhibition of substrate cleavage by matrix metalloproteinase 9 (MMP-9) and the inhibition of TNFα production by lipopolysaccharide (LPS)-activated macrophages were performed. MMP-9 activity was determined by fluorescence after incubation of recombinant MMP-9 with fluorescein-conjugated DQ gelatin for 90 min. TNFα production was determined by incubation of 10 ng/ml LPS with RAW264.7 macrophage cells for 24 h, followed by quantitation of TNFα in culture supernatant by ELISA.
This assay was designed to measure the degradation of substrate by purified enzyme. To a solution containing 2.5 μg/ml fluorescein-conjugated DQ gelatin (Invitrogen) in buffer (50 mM Tris-HCl, 150 mM NaCl, 5 mM CaCl2, 0.2 mM sodium azide, pH 7.6), tetracycline compounds were added at final concentrations ranging from 100 to 1 μM. Subsequently, an aliquot of active recombinant human matrix metalloproteinase-9 (MMP-9)(CalBioChem) was added to a final concentration of 0.05 μg/ml. The total volume of the reaction mixture was 200 μL and samples were contained in 96-well black plates (Corning). The mixture was incubated at room temperature in the dark for 85 min, after which the fluorescence was measured using a microplate reader. Samples containing no MMP-9 enzyme were used as negative controls and samples with enzyme and without compound were positive controls.

The test system of test [4] is LPS-induced TNFα production by RAW 264.7 macrophages. In words: TNFα production assay, LPS-activated RAW 264.7 macrophages. Type of test: cell-based. Particulars: Mus musculus, RAW264.7. The procedure:
as §1
The RAW 264.7 mouse macrophage cell line was grown to confluence in DMEM medium containing 10% fetal bovine serum (FBS). Cells were harvested into single-cell suspensions, seeded into 96-well plates at 1-2×10^5 cells/well (200 μL volume) and incubated (5% CO2, 37° C.) overnight. Compounds were added to the cells at final concentrations ranging from 50 to 1 μM and pre-incubated for 30 min. Lipopolysaccharide (LPS) was added to the cells at a final concentration of 10 ng/ml. After incubation for 20 hr, culture supernatants were harvested and transferred to a new 96-well plate. Levels of LPS-induced TNFα in the supernatants were quantified by ELISA (R & D Systems) with supernatants from unstimulated cells serving as a negative control.

Test [5] has as its system Fmr1 KO mice and wild-type littermates. In words: Elevated Plus Maze test, mouse model of Fragile X Syndrome. It counts as in vivo. Particulars: 10 mg/kg/d i.p. osmotic pump, 1 week. The procedure: (§2) The purpose of this study was to test Compound 1 for treating Fragile X Syndrome. This study utilized Fmr1 KO mice, an animal model of Fragile X Syndrome.
(§3) The Fmr1 KO mice (C57BL/6 background) were kindly provided the FRAXA Foundation. Mice were housed in groups of the same genotype in a temperature and humidity controlled room with a 12-h light-dark cycle (lights on 7 am to 7 pm). Testing was conducted during the light phase. Food and water were available ad libitum. Testing was conducted on Fmr1 KO mice and their wild-type littermates. They were housed in commercial plastic cages purchased in the UK. Experiments were conducted in line with the requirements of the UK Animals (Scientific Procedures) Act, 1986.
(§4) The dosing protocol used is shown below. Mice were dosed at 6-7 weeks by intraperitoneal (i.p.) infusion by osmotic pump (0.5 μl/hour) for 1 week. The solution of 0.9% saline was used as a vehicle, and 10 mice were dosed per each group.

For test [6] the test system is unchanged. In words: Open Field test, mouse model of Fragile X Syndrome. The following applies: 10 mg/kg/d i.p. osmotic pump, 1 week. Type of test: in vivo. The procedure: as §2, §3, §4
Where [7] appears, read: Lateral Corpus Callosum, Week 4, 25 mg/kg/d i.p.
The mark [8] stands for this setting: Lateral Corpus Callosum, Week 5, 25 mg/kg/d i.p.
The mark [9] stands for this setting: Medial Corpus Callosum, Week 3, 25 mg/kg/d i.p.
Setting [10] is: Medial Corpus Callosum, Week 4, 25 mg/kg/d i.p.
The mark [11] stands for this setting: Medial Corpus Callosum, Week 5, 25 mg/kg/d i.p.
The mark [12] stands for this setting: Table 4, unit inferred, read-out: MMP-9 activity (cell-free).
The mark [13] stands for this setting: Table 11, read-out: MMP-9 Activity (cell-free) IC50.
[14] abbreviates: 10 ng/ml LPS, 20 hr, read-out: TNFα Production (RAW264.7) IC50.
Where [15] appears, read: Table 4, unit inferred, read-out: TNFα production (RAW264.7).

Molecules are shown by their SMILES. Where “and” joins values, the source holds several entries; their conditions need not be identical. Equal values may be shown once. Read-outs that look alike come from different tables or passages of the source. Marks after values point to notes of the source that are not given here.

Take `CN(C)c1ccc(O)c2c1C[C@H]1C[C@H]3[C@H](N(C)C)C(O)=C(C(N)=O)C(=O)[C@@]3(O)C(O)=C1C2=O` [Minocycline, minocycline, reference compound]: the “% Inhibition Axon Loss” value in test [1] is given as 38%; in test [2] (setting [9]), 29%; in test [2] (setting [10]), 30%; in test [2] (setting [11]), −10%. Also, the “% Inhibition Clinical Score” value in test [1] is 40%. Moreover, the “% Inhibition Demyelination” value is 34% in test [1]; 63* % in test [2] (setting [7]); 63% in test [2] (Lateral Corpus Callosum, Week 4, 25 mg/kg/d i.p., listed as minocycline); 25% in test [2] (setting [8]); 31% in test [2] (setting [9]); 17% in test [2] (setting [10]). In test [2] (setting [11]), the “% Inhibition Demyelination” value stood at 12%. In addition, the “% Inhibition Inflammation” value in test [1] was 43%. Moreover, the IC50 in test [3] (setting [12]) amounted to 43.2 µM; in test [3] (setting [13]) it was 43.2 µM; in test [4] (setting [14]) it was 47 µM; in test [4] (setting [15]) it was 47 µM.
As to `CCc1cc(N(C)C)c2c(c1O)C(=O)C1=C(O)[C@]3(O)C(=O)C(C(N)=O)=C(O)[C@@H](N(C)C)[C@@H]3C[C@@H]1C2` [Compound 1], the “% Inhibition Axon Loss” value in test [1] was 70%; in test [2] (setting [9]) it was 62% and 66* %; in test [2] (setting [10]), 41%; in test [2] (setting [11]) it was 3%. For the same compound, the “% Inhibition Clinical Score” value in test [1] is listed as 65%. Moreover, the “% Inhibition Demyelination” value in test [1] is 69%; in test [2] (setting [7]) it was 62%; in test [2] (setting [8]), 29%; in test [2] (setting [9]), 70%; in test [2] (setting [10]), 13%; in test [2] (setting [11]), −11%. Moreover, in test [1], the “% Inhibition Inflammation” value was found to be 74%. Besides, the IC50 in test [3] (setting [12]) is 29 µM; in test [3] (setting [13]) it was 32.7 µM; in test [4] (setting [14]), 10.9 ± 1.6 µM; in test [4] (setting [15]), 10.9 ± 1.6 µM. Further, the “Elevated Plus Maze: time spent in the close arm, Mean time” value in test [5] (Fmr1 KO mice) was 259.100 min; in test [5] (WT mice) it was 227.800 min. Moreover, the “Open Field Test - Trial 2, Mean time” value in test [6] (Fmr1 KO mice) came out at 97.100 min; in test [6] (WT mice), 83.900 min. Besides, the “Open Field Test - Trial 3, Mean time” value turned out to be 72.600 min in test [6] (Fmr1 KO mice) and 68.300 min in test [6] (WT mice).
